≈ marks a conversion by molar mass, not a printed value.
What was measured:
in vitro [1] = conditions: Dunkin Hartley, guinea pig, plasma
in vitro [2] = conditions: human, plasma
physchem [3] = conditions: octan-1-ol/water
in vitro [4] = conditions: hepatocytes
in vitro [5] = conditions: mouse, plasma
in vitro [6] = conditions: SD, HW or BN, rat, plasma
in vitro [7] = conditions: Beagle, dog, plasma
physchem [8] = test: physchem
physchem [9] = test: physchem; remark: listed apart in the source
in vitro [10] = conditions: human, hepatocytes
in vitro [11] = conditions: human
physchem [12] = test: physchem; remark: listed apart in the source
physchem [13] = conditions: pH 7.4 buffer

N#Cc1ccc2ccc(=O)n(CCN3CC[C@@H](NCc4ccc5c(n4)NC(=O)CO5)[C@@H](F)C3)c2c1
fraction unbound at 5 h (in vitro [1]): 0.715 | fraction unbound at 5 h (in vitro [2]; PPB): 0.204 | logD (physchem [3]; pH 7.4, LogD7.4): 0.66 | hepatocyte CLint (in vitro [4]): 16.6 µL/min/1e6 cells | fraction unbound at 5 h (in vitro [5]): 0.465 | fraction unbound at 5 h (in vitro [6]): 0.285 | fraction unbound at 5 h (in vitro [7]): 0.591

O=C(CC1CCN(Cc2ccn(-c3ccc(C(F)(F)F)cn3)c2)CC1)NC(c1ccc(F)cc1)c1ccc(F)cc1
fraction unbound at 5 h (in vitro [1]): 0.013 | fraction unbound at 5 h (in vitro [2]; PPB): 0.0053 | fraction unbound at 5 h (in vitro [6]): 0.0033 | fraction unbound at 5 h (in vitro [7]): 0.004

CNC(=O)CCCN(C)C(=O)c1ccc2c(c1)c1c(n2C)CC[C@@H](C2CCOCC2)C1
fraction unbound at 5 h (in vitro [1]): 0.329 | fraction unbound at 5 h (in vitro [2]): 0.0366 | fraction unbound at 5 h (in vitro [6]): 0.0146 | fraction unbound at 5 h (in vitro [7]): 0.258

Cc1nnc(C(C)C)n1[C@H]1C[C@H]2CC[C@@H](C1)N2CC[C@H](NC(=O)C1CCC(F)(F)CC1)c1ccccc1 [MARAVIROC]
pKa (physchem [8]): 2.4 | pKa (physchem [9]): 9.66

c1ccc([C@@H]([C@H](c2ccccc2)N2CCCC2)N2CCCC2)cc1
fraction unbound at 5 h (in vitro [1]): 0.489 | fraction unbound at 5 h (in vitro [2]; PPB): 0.17 | fraction unbound at 5 h (in vitro [5]): 0.339 | fraction unbound at 5 h (in vitro [6]): 0.329

CCCN(c1cccnc1)P(=O)(c1ccccc1)c1ccccc1
fraction unbound at 5 h (in vitro [1]): 0.309 | fraction unbound at 5 h (in vitro [2]): 0.0205 | fraction unbound at 5 h (in vitro [5]): 0.124 | fraction unbound at 5 h (in vitro [6]): 0.151 | fraction unbound at 5 h (in vitro [7]): 0.176

CN(C)CCC(c1ccc(Cl)cc1)c1ccccn1 (configuration not stated) [CHLORPHENIRAMINE]
pKa (physchem [8]): 5.86

COc1ccc2c(C)cc(N[C@H]3CC[C@H](NCc4cn(C)c5cccnc45)C3)nc2c1
fraction unbound at 5 h (in vitro [1]): 0.0854 | fraction unbound at 5 h (in vitro [2]; PPB): 0.0262 | fraction unbound at 5 h (in vitro [5]): 0.0647

NC(=O)[C@@H](CCC(F)(F)F)N(Cc1ccc(-c2ncon2)cc1F)S(=O)(=O)c1ccc(Cl)cc1
fraction unbound at 5 h (in vitro [1]): 0.0081 | fraction unbound at 5 h (in vitro [5]): 0.0149 | fraction unbound at 5 h (in vitro [6]): 0.0119

CN(C)N(C)C(=O)[C@@]1(Cc2ccccc2)CCCN(C(=O)[C@@H](Cc2c[nH]c3ccccc23)NC(=O)C(C)(C)N)C1 [ANAMORELIN]
fraction unbound at 5 h (in vitro [1]): 0.22 | logD (physchem [3]; pH 7.4, LogD7.4): 2.1 | fraction unbound at 5 h (in vitro [6]): 0.16 | hepatocyte CLint (in vitro [10]): 8.91 µL/min/1e6 cells | fraction unbound at 5 h (in vitro [7]): 0.0633

c1ccc([C@H]([C@@H](c2ccccc2)N2CCCC2)N2CCCC2)cc1
fraction unbound at 5 h (in vitro [1]): 0.489 | fraction unbound at 5 h (in vitro [2]; PPB): 0.17 | fraction unbound at 5 h (in vitro [5]): 0.271 | fraction unbound at 5 h (in vitro [6]): 0.339

Cc1nc2ccc(Oc3ccc(F)cc3)cc2c(=O)n1C[C@H]1CCCN(C(C)C)C1
logD (physchem [3]; pH 7.4, LogD7.4): 2.4 | pKa (physchem [8]): 2.65

O=P(c1ccccc1)(c1ccccc1)N(Cc1ccccn1)Cc1ccccn1
fraction unbound at 5 h (in vitro [1]): 0.569 | fraction unbound at 5 h (in vitro [2]): 0.0049 | fraction unbound at 5 h (in vitro [5]): 0.0968

c1ccc([C@H]([C@@H](c2ccccc2)N2CCCCC2)N2CCCCC2)cc1
fraction unbound at 5 h (in vitro [1]): 0.5 | fraction unbound at 5 h (in vitro [2]; PPB): 0.0606 | hepatocyte CLint (in vitro [4]): 12 µL/min/1e6 cells | fraction unbound at 5 h (in vitro [5]): 0.253 | microsomal CLint (in vitro [11]; liver microsomes): 13.8 µL/min/mg | fraction unbound at 5 h (in vitro [6]): 0.365 | fraction unbound at 5 h (in vitro [7]): 0.163

Cc1nn(-c2ccccc2)c(N)c1-c1ccccc1
fraction unbound at 5 h (in vitro [1]): 0.0328 | fraction unbound at 5 h (in vitro [2]): 0.013 | fraction unbound at 5 h (in vitro [6]): 0.0457 | hepatocyte CLint (in vitro [10]): 32.4 µL/min/1e6 cells | fraction unbound at 5 h (in vitro [7]): 0.0313

O=C(N[C@@H]1COc2cccc(-c3ccc(CO)nc3)c2C1)c1ccc(OCC(F)(F)F)nc1
fraction unbound at 5 h (in vitro [1]): 0.11 | fraction unbound at 5 h (in vitro [2]; PPB): 0.0374 | fraction unbound at 5 h (in vitro [6]): 0.0752 | fraction unbound at 5 h (in vitro [7]): 0.0477

OC(Cn1cncn1)(Cn1cncn1)c1ccc(F)cc1F [FLUCONAZOLE]
fraction unbound at 5 h (in vitro [2]): 0.858 | pKa (physchem [8]): 2.18 | pKa (physchem [9]): 2.72

C#CCn1c(=O)c2c(-c3cncn3C)n(Cc3ccnc4ccc(Cl)cc34)nc2n(CC2CC2)c1=O
pKa (physchem [8]): 4.44

CC#Cc1cncc(-c2ccc3c(c2)C2(N=C(C)C(N)=N2)[C@]2(CC[C@H](OC)CC2)C3)c1 (some centres not stated)
fraction unbound at 5 h (in vitro [1]): 0.072 | fraction unbound at 5 h (in vitro [2]; PPB): 0.0801 | fraction unbound at 5 h (in vitro [5]): 0.0041

CC1=NC(c2cccc(-c3cncc(Cl)c3)c2)(C2CC2)N=C1N (configuration not stated)
pKa (physchem [8]): 2.28 | pKa (physchem [9]): 6.04

Cc1ccc(S(=O)(=O)Nc2c(C(=O)N[C@@H](C)C(C)(C)C)c(C)nn2C(C)C)cc1
fraction unbound at 5 h (in vitro [1]): 0.271 | fraction unbound at 5 h (in vitro [2]; PPB): 0.0457 | hepatocyte CLint (in vitro [4]): 10 µL/min/1e6 cells | fraction unbound at 5 h (in vitro [6]): 0.0418 | hepatocyte CLint (in vitro [10]): < 3 µL/min/1e6 cells | pKa (physchem [12]): 4.5 | fraction unbound at 5 h (in vitro [7]): 0.0736

CCCNC(c1cccnc1)P(=O)(c1ccccc1)c1ccccc1 (configuration not stated)
fraction unbound at 5 h (in vitro [1]): 0.19 | fraction unbound at 5 h (in vitro [6]): 0.173 | fraction unbound at 5 h (in vitro [7]): 0.197

NC(=O)N1c2ccccc2C=Cc2ccccc21 [CARBAMAZEPINE]
fraction unbound at 5 h (in vitro [1]): 0.24 | solubility thermodynamic (physchem [13]): 776 µM (≈ 183 µg/mL) | fraction unbound at 5 h (in vitro [2]; PPB): 0.294 | logD (physchem [3]; pH 7.4, LogD7.4): 1.65 | hepatocyte CLint (in vitro [4]): 19.9 µL/min/1e6 cells | microsomal CLint (in vitro [11]; microsomes): 7 µL/min/mg | fraction unbound at 5 h (in vitro [6]): 0.266 | hepatocyte CLint (in vitro [10]): 5.25 µL/min/1e6 cells | fraction unbound at 5 h (in vitro [7]): 0.271

O=C(c1c[nH]c(=O)c2ccccc12)N1CCC(N2CCC(Oc3ccc(Cl)c(Cl)c3)CC2)CC1
fraction unbound at 5 h (in vitro [1]): 0.17 | fraction unbound at 5 h (in vitro [2]; PPB): 0.089 | logD (physchem [3]; pH 7.4, LogD7.4): 3.51 | fraction unbound at 5 h (in vitro [7]): 0.0488

O=P(c1ccccc1)(c1ccccc1)N(Cc1ccccn1)c1cccnc1
fraction unbound at 5 h (in vitro [1]): 0.299 | fraction unbound at 5 h (in vitro [2]): 0.0234 | fraction unbound at 5 h (in vitro [5]): 0.17 | fraction unbound at 5 h (in vitro [6]): 0.145 | fraction unbound at 5 h (in vitro [7]): 0.208

Cc1nn(-c2ccc(F)cc2)c(NS(=O)(=O)c2ccc(C(F)(F)F)cc2)c1C(=O)N[C@@H](C)C(C)(C)C
fraction unbound at 5 h (in vitro [1]): 0.0736 | fraction unbound at 5 h (in vitro [2]; PPB): 0.0136 | logD (physchem [3]; pH 7.4, LogD7.4): 2.35 | hepatocyte CLint (in vitro [4]): 5.01 µL/min/1e6 cells | microsomal CLint (in vitro [11]; microsomes): 10 µL/min/mg | fraction unbound at 5 h (in vitro [6]): 0.0293 | pKa (physchem [12]): 3.4

N=C(N)SCCc1cccc(CCSC(=N)N)c1
pKa (physchem [8]): 9.1 | pKa (physchem [9]): 11

OCc1cc(C(O)CNCCCCCCOCCCCc2ccccc2)ccc1O (configuration not stated) [SALMETEROL]
fraction unbound at 5 h (in vitro [1]): 0.0477 | fraction unbound at 5 h (in vitro [2]; PPB): 0.0661 | hepatocyte CLint (in vitro [4]): 85 µL/min/1e6 cells | microsomal CLint (in vitro [11]; liver microsomes): 58 µL/min/mg | fraction unbound at 5 h (in vitro [6]): 0.0736 | fraction unbound at 5 h (in vitro [7]): 0.0179

CCS(=O)(=O)c1ccc(-c2cc(C(F)(F)F)ccc2OCC(=O)O)c(C)c1
fraction unbound at 5 h (in vitro [1]): 0.0928 | fraction unbound at 5 h (in vitro [2]; PPB): 0.0428 | logD (physchem [3]; pH 7.4, LogD7.4): -0.45 | fraction unbound at 5 h (in vitro [5]): 0.208 | fraction unbound at 5 h (in vitro [6]): 0.0705 | pKa (physchem [12]): 3.2 | fraction unbound at 5 h (in vitro [7]): 0.03

COc1ccc(CCO[C@@H]2CCCC[C@H]2N2CC[C@@H](O)C2)cc1OC [VERNAKALANT]
fraction unbound at 5 h (in vitro [1]): 0.309 | fraction unbound at 5 h (in vitro [2]; PPB): 0.629 | fraction unbound at 5 h (in vitro [6]): 0.776 | hepatocyte CLint (in vitro [10]): 6.46 µL/min/1e6 cells | fraction unbound at 5 h (in vitro [7]): 0.772

C[N+]1(C)[C@@H]2C[C@@H](OC(=O)C(O)(c3cccs3)c3cccs3)C[C@H]1[C@@H]1O[C@@H]12 [TIOTROPIUM]
fraction unbound at 5 h (in vitro [1]): 0.613 | logD (physchem [3]; pH 7.4): -0.25 | fraction unbound at 5 h (in vitro [7]): 0.807

CCN(Cc1cc(C(F)(F)F)ccc1-c1cc(CC(=O)O)ccc1OC)C(=O)NCc1ccccc1 [AM-211]
fraction unbound at 5 h (in vitro [1]): 0.0256 | solubility thermodynamic (physchem [13]): 1380 µM (≈ 691 µg/mL) | fraction unbound at 5 h (in vitro [2]; PPB): 0.0171 | hepatocyte CLint (in vitro [4]): 18.2 µL/min/1e6 cells | microsomal CLint (in vitro [11]; microsomes): 67.6 µL/min/mg | fraction unbound at 5 h (in vitro [6]): 0.0191 | fraction unbound at 5 h (in vitro [7]): 0.0039

N#Cc1cc(F)c(Cl)cc1O[C@H](CCN)c1ccccc1
fraction unbound at 5 h (in vitro [1]): 0.101 | fraction unbound at 5 h (in vitro [2]; PPB): 0.289 | logD (physchem [3]; pH 7.4, LogD7.4): 0.77 | microsomal CLint (in vitro [11]; liver microsomes): < 3 µL/min/mg | pKa (physchem [9]): 9.6 | fraction unbound at 5 h (in vitro [7]): 0.0457

COc1ccc(CC(=O)NCc2ccccc2-c2ccccc2C(=O)NCCc2cccnc2)cc1
fraction unbound at 5 h (in vitro [1]): 0.17 | fraction unbound at 5 h (in vitro [2]; PPB): 0.0066 | fraction unbound at 5 h (in vitro [5]): 0.0872 | fraction unbound at 5 h (in vitro [6]): 0.0836 | fraction unbound at 5 h (in vitro [7]): 0.0705

C[C@H](CN(C(=O)c1ccc(C#N)cc1)c1ccccn1)N1CCN(c2cccc3c2OCCO3)CC1 [LECOZOTAN]
fraction unbound at 5 h (in vitro [1]): 0.139 | fraction unbound at 5 h (in vitro [2]; PPB): 0.009 | fraction unbound at 5 h (in vitro [5]): 0.139 | fraction unbound at 5 h (in vitro [6]): 0.179
